Values quoted from earlier work, collected in patent publication US10156556B2, “Method for determining ecological risks of polycyclic aromatic hydrocarbon in water body” (priority 2013, dated 2018).

Conditions: relative to benzoapyrene; Nisbet and Lagoy 1992; cited from earlier work

For c1ccc2c(c1)-c1cccc3cccc-2c13 [Flu], the Toxic equivalency factor is given as 0.001.
